Laboratory results: ChEMBL document CHEMBL4364299, “Discovery of a Potent Kelch-Like ECH-Associated Protein 1-Nuclear Factor Erythroid 2-Related Factor 2 (Keap1-Nrf2) Protein-Protein Interaction Inhibitor with Natural Proline Structure as a Cytoprotective Agent against Acetaminophen-Induced Hepatotoxicity” (J Med Chem, 2019)
Activity calls are given as the source filed them. The rule behind the calls is not given here.

Experiments:
[1] = biological target: T1, Nuclear factor erythroid 2-related factor 2 (Homo sapiens) (UniProt Q16236); test: Activation of Nrf2 in human L02 cells assessed as increase in NEFL2L mRNA expression measured after 12 hrs by trizol reagent based qRT-PCR analysis; type: cell-based
T1 sequence (whole entry): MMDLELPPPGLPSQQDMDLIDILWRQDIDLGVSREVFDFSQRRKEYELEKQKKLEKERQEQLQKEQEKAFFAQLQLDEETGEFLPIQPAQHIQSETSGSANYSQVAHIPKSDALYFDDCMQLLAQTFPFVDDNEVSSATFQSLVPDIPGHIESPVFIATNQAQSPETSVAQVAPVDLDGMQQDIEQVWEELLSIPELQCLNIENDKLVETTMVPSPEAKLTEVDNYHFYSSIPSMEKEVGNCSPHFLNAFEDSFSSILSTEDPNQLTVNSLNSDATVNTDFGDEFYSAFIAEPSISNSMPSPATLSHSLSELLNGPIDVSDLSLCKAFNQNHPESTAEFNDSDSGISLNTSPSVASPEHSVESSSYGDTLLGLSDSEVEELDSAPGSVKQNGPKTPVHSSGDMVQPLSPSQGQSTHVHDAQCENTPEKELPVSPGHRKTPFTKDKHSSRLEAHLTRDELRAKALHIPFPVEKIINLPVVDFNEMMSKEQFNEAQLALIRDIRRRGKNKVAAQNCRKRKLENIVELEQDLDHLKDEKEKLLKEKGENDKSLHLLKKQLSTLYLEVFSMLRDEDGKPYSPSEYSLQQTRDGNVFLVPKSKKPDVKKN

[2] = biological target: T1, Nuclear factor erythroid 2-related factor 2 (Homo sapiens); test: Activation of Nrf2 in human L02 cells assessed as increase in GCLM mRNA expression measured after 12 hrs by trizol reagent based qRT-PCR analysis; type: cell-based
[3] = biological target: T1, Nuclear factor erythroid 2-related factor 2 (Homo sapiens); test: Activation of Nrf2 in human L02 cells assessed as increase in NEFL2L mRNA expression at 10 uM measured after 8 to 24 hrs by trizol reagent based qRT-PCR analysis; type: cell-based
[4] = biological target: T1, Nuclear factor erythroid 2-related factor 2 (Homo sapiens); test: Activation of Nrf2 in human L02 cells assessed as increase in HO-1 mRNA expression at 10 uM measured after 8 to 24 hrs by trizol reagent based qRT-PCR analysis; type: cell-based
[5] = biological target: T1, Nuclear factor erythroid 2-related factor 2 (Homo sapiens); test: Activation of Nrf2 in human L02 cells assessed as increase in GCLM mRNA expression at 10 uM measured after 8 to 24 hrs by trizol reagent based qRT-PCR analysis; type: cell-based
[6] = biological target: T1, Nuclear factor erythroid 2-related factor 2 (Homo sapiens); test: Activation of Nrf2 in human L02 cells assessed as increase in NEFL2L expression measured after 12 hrs by Western blot analysis; type: cell-based
[7] = biological target: T1, Nuclear factor erythroid 2-related factor 2 (Homo sapiens); test: Activation of Nrf2 in human L02 cells assessed as increase in NQO-1 expression measured after 12 hrs by Western blot analysis; type: cell-based
[8] = biological target: T1, Nuclear factor erythroid 2-related factor 2 (Homo sapiens); test: Activation of Nrf2 in human L02 cells assessed as increase in GCLM expression measured after 12 hrs by Western blot analysis; type: cell-based
[9] = biological target: T1, Nuclear factor erythroid 2-related factor 2 (Homo sapiens); test: Activation of Nrf2 in human L02 cells assessed as increase in NEFL2L expression at 10 uM measured after 4 to 72 hrs hrs by Western blot analysis; type: cell-based
[10] = system: L02; test: Upregulation of NEFL2L mRNA expression in human L02 cells harboring Nrf2 siRNA at 10 uM measured after 10 hrs by trizol reagent based qRT-PCR analysis; type: functional, cell-based
[11] = system: L02; test: Upregulation of GCLM mRNA expression in human L02 cells harboring Nrf2 siRNA at 10 uM measured after 10 hrs by trizol reagent based qRT-PCR analysis; type: functional, cell-based
[12] = system: L02; test: Upregulation of NQO-1 expression in human L02 cells harboring Nrf2 siRNA at 10 uM measured after 10 hrs by Western blot analysis; type: functional, cell-based
[13] = biological target: T1, Nuclear factor erythroid 2-related factor 2 (Homo sapiens); test: Activation of Nrf2 in human L02 cells harboring control siRNA assessed as increase in NEFL2L mRNA expression at 10 uM measured after 10 hrs by trizol reagent based qRT-PCR analysis; type: cell-based
[14] = system: Mus musculus; test: (§1) Protection against APAP-induced hepatotoxicity in C57BL/6 mouse assessed as decrease in Nrf2 expression in liver at 10 to 40 mg/kg, ip treated 2 hrs prior to 22 hrs starvation followed by APAP challenge and measured after 6 hrs by Dako/Mayer's hematoxylin staining-based immunohistochemical analysis; type: functional, organism-based
[15] = system: Mus musculus; test: Protection against APAP-induced hepatotoxicity in C57BL/6 mouse assessed as decrease in HO-1 expression in liver at 10 to 40 mg/kg, ip treated 2 hrs prior to 22 hrs starvation followed by APAP challenge and measured after 6 hrs by Dako/Mayer's hematoxylin staining-based immunohistochemical analysis; type: functional, organism-based
[16] = system: Mus musculus; test: Protection against APAP-induced hepatotoxicity in C57BL/6 mouse assessed as decrease in reactive oxygen species level in liver at 10 to 40 mg/kg, ip treated 2 hrs prior to 22 hrs starvation followed by APAP challenge and measured after 6 hrs; type: functional, organism-based
[17] = system: Mus musculus; test: Protection against APAP-induced hepatotoxicity in C57BL/6 mouse assessed as decrease in MPO activity in liver at 10 to 40 mg/kg, ip treated 2 hrs prior to 22 hrs starvation followed by APAP challenge and measured after 6 hrs; type: functional, organism-based
[18] = system: Mus musculus; test: Protection against APAP-induced hepatotoxicity in C57BL/6 mouse assessed as increase in GSH/GSSG ratio in liver at 10 to 40 mg/kg, ip treated 2 hrs prior to 22 hrs starvation followed by APAP challenge and measured after 6 hrs; type: functional, organism-based
[19] = system: Mus musculus; test: Protection against APAP-induced hepatotoxicity in C57BL/6 mouse assessed as decrease in liver lymphocytes infiltration at 10 to 40 mg/kg, ip treated 2 hrs prior to 22 hrs starvation followed by APAP challenge and measured after 6 hrs by H and E staining-based light microscopic analysis; type: functional, organism-based
[20] = system: Mus musculus; test: Protection against APAP-induced hepatotoxicity in C57BL/6 mouse assessed as reduction in liver apoptosis at 10 to 40 mg/kg, ip treated 2 hrs prior to 22 hrs starvation followed by APAP challenge and measured after 6 hrs by TUNEL assay; type: functional, organism-based
[21] = system: Mus musculus; test: as §1, with “alpha-SMA” for “Nrf2”; type: functional, organism-based
[22] = system: Mus musculus; test: Protection against APAP-induced hepatotoxicity in C57BL/6 mouse assessed as decrease in ALT level at 10 mg/kg, ip treated 2 hrs prior to 22 hrs starvation followed by APAP challenge and measured after 6 hrs; type: functional, organism-based
[23] = system: Mus musculus; test: Protection against APAP-induced hepatotoxicity in C57BL/6 mouse assessed as decrease in IL1beta production at 10 mg/kg, ip treated 2 hrs prior to 22 hrs starvation followed by APAP challenge and measured after 6 hrs; type: functional, organism-based
[24] = system: Mus musculus; test: Protection against APAP-induced hepatotoxicity in C57BL/6 mouse assessed as decrease in IL6 production at 10 mg/kg, ip treated 2 hrs prior to 22 hrs starvation followed by APAP challenge and measured after 6 hrs; type: functional, organism-based
[25] = system: L02; conditions: Homo sapiens, 5 to 10 uM
Description: Cytoprotective activity against APAP-induced hepatotoxicity in human L02 cells assessed as inhibition of IL1beta production at 5 to 10 uM preincubated for 12 hrs followed by APAP stimulation and measured after 24 hrs by ELISA

[26] = system: L02; conditions: Homo sapiens, 5 to 10 uM; remark: listed apart in the source
Description: Cytoprotective activity against APAP-induced hepatotoxicity in human L02 cells assessed as inhibition of IL6 production at 5 to 10 uM preincubated for 12 hrs followed by APAP stimulation and measured after 24 hrs by ELISA

## COc1ccc(S(=O)(=O)N(CC(=O)O)c2ccc(N3CCC[C@H]3C(=O)O)c3ccccc23)cc1
[1]
  Activity: Dose-dependent effect
[2]
  Activity: Dose-dependent effect
[3]
  Activity: Active
[4]
  Activity: Active
[5]
  Activity: Active
[6]
  Activity: Dose-dependent effect
[7]
  Activity: Dose-dependent effect
[8]
  Activity: Dose-dependent effect
[9]
  Activity: Active
[10]
  Activity: inactive
[11]
  Activity: inactive
[12]
  Activity: inactive
[13]
  Activity: Active
[14]
  Activity: Active
[15]
  Activity: Active
[16]
  Activity: Active
[17]
  Activity: Active
[18]
  Activity: Active
[19]
  Activity: Active
[20]
  Activity: Active
[21]
  Activity: Active
[22]
  Activity: Active
[23]
  Activity: Active
[24]
  Activity: Active
[25]
  inhibition: Active
[26]
  inhibition: Active
